Patent US20230085307A1, “PYRIDAZINONE COMPOUND AND HERBICIDE” (NISSAN CHEMICAL CORPORATION, priority 2019, published 2023)

Assays:
soybean [1] = test: Test Example 5: effect on crop by foliage application, plastic box (Table 20, symbol d); format: in vivo; details: AAH 320 g/ha, three weeks after application
Method in brief: (§1)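 Post-emergence foliar test in sterilized diluvial soil. Compound applied as water-diluted emulsion at a predetermined rate to 14-day-old plants; evaluation at three weeks.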

persian speedwell = test: Test Example 5: herbicidal effect by foliage application, plastic box (Table 20, symbol R); format: in vivo, Persian speedwell (Veronica persica); details: foliage application, AAH 320 g/ha, three weeks after application
Method in brief: as §1

barnyard grass [2] = test: Test Example 3: herbicidal effect by foliage application, Wagner pot (Table 18, symbol H); format: in vivo, barnyard grass (Echinochloa crus-galli); details: 320 g/ha
Method in brief: (§2)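 Plants were sown in alluvial soil held under 0.1–0.5 cm standing water and grown 14 days in a greenhouse at 25–30 °C. An emulsifiable formulation, water-diluted to the set dose, was then sprayed onto the foliage, and effects were scored three weeks later using previously defined criteria.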

barnyard grass [3] = test: Test Example 4: herbicidal effect by soil treatment (Table 19, symbol H); format: in vivo, barnyard grass (Echinochloa crus-galli); details: amount of applied herbicide 320 g/ha
Method in brief: (§3)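 Emulsion of test compound, water-diluted to predetermined amount, sprayed on soil after sowing (seed depth ~1.5 cm, sterilized diluvial soil). Greenhouse, 25–30° C. Effect graded at three weeks post-spray.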

false cleavers = test: Test Example 4: herbicidal effect by soil treatment (Table 19, symbol Q); format: in vivo, false cleavers (Galium spurium); details: amount of applied herbicide 320 g/ha
Method in brief: as §3

rapeseed [4] = test: Test Example 4: effect on crop by soil treatment (Table 19, symbol g); format: in vivo; details: amount of applied herbicide 320 g/ha
Source text: (§4) [Test Example 4] Herbicidal Effect Test by Soil Treatment
(§5) Sterilized diluvial soil was placed in a plastic box having a length of 21 cm, a width of 13 cm, and a depth of 7 cm. The seeds of each of southern crabgrass, green foxtail, barnyard grass, wild oat, blackgrass, Italian ryegrass, windgrass, velvetleaf, redroot pigweed, lambsquarters, chickweed, false cleavers, persian speedwell, corn, soybean, rice, wheat, beet, and rapeseed were sowed in a spot-like manner and covered with the soil having a thickness of about 1.5 cm. Subsequently, the emulsion agent of the compound of the present invention prepared according to Formulation Example 2 was diluted with water so as to achieve a predetermined herbicide amount, and the diluted emulsion agent was uniformly applied to the surface of the soil with a small-sized spray. The plastic box was placed in a greenhouse at 25° C. to 30° C. for growth of the plants. Three weeks after the herbicide application, the effect of the herbicide on each plant was evaluated according to the criteria of Test Example 1.

rapeseed [5] = test: Test Example 5: effect on crop by foliage application, plastic box (Table 20, symbol g); format: in vivo; details: AAH 320 g/ha, three weeks after application
Source text: (§6) [Test Example 5] Herbicidal Effect Test by Foliage Application
as §5, with “Thereafter, the plants were grown in a greenhouse at 25° C. to 30° C. After 14-day growth of the plants,” for “Subsequently,”, “a foliage part” for “the surface of the soil”, “spray.” for “spray. The plastic box was placed in a greenhouse at 25° C. to 30° C. for growth of the plants.”

windgrass [6] = test: Test Example 5: herbicidal effect by foliage application, plastic box (Table 20, symbol L); format: in vivo, windgrass (Apera spica-venti); details: foliage application, AAH 320 g/ha, three weeks after application
Method in brief: as §1

wheat = test: Test Example 5: effect on crop by foliage application, plastic box (Table 20, symbol e); format: in vivo; details: AAH 320 g/ha, three weeks after application
Source text: as §6
as §5, with “Thereafter, the plants were grown in a greenhouse at 25° C. to 30° C. After 14-day growth of the plants,” for “Subsequently,”, “a foliage part” for “the surface of the soil”, “spray.” for “spray. The plastic box was placed in a greenhouse at 25° C. to 30° C. for growth of the plants.”

rice flat sedge = test: Test Example 3: herbicidal effect by foliage application, Wagner pot (Table 18, symbol E); format: in vivo, rice flat sedge (Cyperus iria); details: 320 g/ha
Method in brief: as §2

windgrass [7] = test: Test Example 4: herbicidal effect by soil treatment (Table 19, symbol L); format: in vivo, windgrass (Apera spica-venti); details: amount of applied herbicide 320 g/ha
Method in brief: as §3

beet = test: Test Example 5: effect on crop by foliage application, plastic box (Table 20, symbol f); format: in vivo; details: AAH 320 g/ha, three weeks after application
Method in brief: as §1

corn = test: Test Example 5: effect on crop by foliage application, plastic box (Table 20, symbol c); format: in vivo; details: AAH 320 g/ha, three weeks after application
Method in brief: as §1

soybean [8] = test: Test Example 4: effect on crop by soil treatment (Table 19, symbol d); format: in vivo; details: amount of applied herbicide 320 g/ha
Source text: as §4, §5

wild oat = test: Test Example 4: herbicidal effect by soil treatment (Table 19, symbol I); format: in vivo, wild oat (Avena fatua); details: amount of applied herbicide 320 g/ha
Method in brief: as §3

Italian ryegrass = test: Test Example 4: herbicidal effect by soil treatment (Table 19, symbol K); format: in vivo, Italian ryegrass (Lolium multiflorum); details: amount of applied herbicide 320 g/ha
Method in brief: as §3

southern crabgrass = test: Test Example 4: herbicidal effect by soil treatment (Table 19, symbol F); format: in vivo, southern crabgrass (Digitaria ciliaris); details: amount of applied herbicide 320 g/ha
Method in brief: as §3

lambsquarters = test: Test Example 4: herbicidal effect by soil treatment (Table 19, symbol O); format: in vivo, lambsquarters (Chenopodium album); details: amount of applied herbicide 320 g/ha
Method in brief: as §3

blackgrass [9] = test: Test Example 4: herbicidal effect by soil treatment (Table 19, symbol J); format: in vivo, blackgrass (Alopecurus myosuroides); details: amount of applied herbicide 320 g/ha
Method in brief: as §3

blackgrass [10] = test: Test Example 5: herbicidal effect by foliage application, plastic box (Table 20, symbol J); format: in vivo, blackgrass (Alopecurus myosuroides); details: foliage application, AAH 320 g/ha, three weeks after application
Method in brief: as §1

Cc1nn(C)c(=O)c(-c2c(-n3cc(Cl)cn3)sc3ccccc23)c1O [Compound No. 1-097, 5-hydroxy-2,6-dimethyl-4-(2-(4-chloro-1H-pyrazol-1-yl)benzo[b]thiophen-3-yl)pyridazin-3(2H)-one]
d: soybean, effect on crop (soybean [1]): 0 (Herbicidal rate of 5% or less (almost no effect))
R: persian speedwell, herbicidal effect (persian speedwell): 0 (Herbicidal rate of 5% or less (almost no effect))
herbicidal effect on H (barnyard grass), rating 0-5 (barnyard grass [2]): 0 (Herbicidal rate of 5% or less (almost no effect))
herbicidal effect rating, H: barnyard grass (barnyard grass [3]): 0 (Herbicidal rate of 5% or less (almost no effect))
herbicidal effect rating, Q: false cleavers (false cleavers): 0 (Herbicidal rate of 5% or less (almost no effect))
effect rating on crop, g: rapeseed (rapeseed [4]): 0 (Herbicidal rate of 5% or less (almost no effect))
g: rapeseed, effect on crop (rapeseed [5]): 5 (Herbicidal rate of 90% or more (almost completely withered))
L: windgrass, herbicidal effect (windgrass [6]): 0 (Herbicidal rate of 5% or less (almost no effect))
e: wheat, effect on crop (wheat): 0 (Herbicidal rate of 5% or less (almost no effect))
herbicidal effect on E (rice flat sedge), rating 0-5 (rice flat sedge): 4 (Herbicidal rate of 70% or more and less than 90%)
herbicidal effect rating, L: windgrass (windgrass [7]): 0 (Herbicidal rate of 5% or less (almost no effect))
f: beet, effect on crop (beet): 5 (Herbicidal rate of 90% or more (almost completely withered))
c: corn, effect on crop (corn): 0 (Herbicidal rate of 5% or less (almost no effect))
effect rating on crop, d: soybean (soybean [8]): 0 (Herbicidal rate of 5% or less (almost no effect))
herbicidal effect rating, I: wild oat (wild oat): 0 (Herbicidal rate of 5% or less (almost no effect))
herbicidal effect rating, K: Italian ryegrass (Italian ryegrass): 0 (Herbicidal rate of 5% or less (almost no effect))
herbicidal effect rating, F: southern crabgrass (southern crabgrass): 0 (Herbicidal rate of 5% or less (almost no effect))
herbicidal effect rating, O: lambsquarters (lambsquarters): 4 (Herbicidal rate of 70% or more and less than 90%)
herbicidal effect rating, J: blackgrass (blackgrass [9]): 0 (Herbicidal rate of 5% or less (almost no effect))
J: blackgrass, herbicidal effect (blackgrass [10]): 0 (Herbicidal rate of 5% or less (almost no effect))
